According to patent publication US9556191B2, “Aminoquinazoline derivatives and their salts and methods of use thereof” (SUNSHINE LAKE PHARMA CO., LTD, priority 2013, dated 2017):

How the values were obtained:
[1] = target: HER2 (human epidermal growth factor receptor 2) (Homo sapiens (Human), UniProt P04626); experiment: In vitro kinase inhibitory activity, HER-2; type: biochemical
Experimental: (§1) Stop buffer was prepared from 100 mM HEPES, pH 7.5, 0.015% Brij-35, 0.2% Coating Reagent #3, and 50 mM EDTA.
Kinase reaction was performed according to the following procedures: (1) 2.5× kinase solution was prepared by adding kinase into 1× kinase base buffer; (2) 2.5× peptide solution was prepared by adding FAM-labeled peptide and ATP into 1× kinase base buffer; (3) 2.5× kinase solution (10 μL) was added to each well of the 384-well assay plate containing 5 μL of compound in 10% DMSO and then the assay plate was incubated at room temperature for 10 minutes; (4) 2.5× peptide solution (10 μL) was added to each well of the 384-well assay plate; and (5) stop buffer (25 μL) was added to stop the kinase reaction after incubation at 28° C. for a specified period of time. […]
(§2) Conversion data were copied, and then converted to inhibition values with the following formula: percent inhibition=(max−conversion)/(max−min)*100 where “max” stands for the DMSO control value, “conversion” stands for the sample value and “[…]” stands for the no-kinase control value. The data were fitted in XLfit to obtain IC50 values.

[2] = target: EGFR T790M (human epidermal growth factor receptor T790M mutation) (Homo sapiens (Human), UniProt P00533, T790M); experiment: In vitro kinase inhibitory activity, EGFR T790M; type: biochemical
Experimental: as §1
(§3) Kinase reaction was performed according to the following procedures: (1) 2.5× kinase solution was prepared by adding kinase into 1× kinase base buffer; (2) 2.5× peptide solution was prepared by adding FAM-labeled peptide and ATP into 1× kinase base buffer; (3) 2.5× kinase solution (10 μL) was added to each well of the 384-well assay plate containing 5 μL of compound in 10% DMSO and then the assay plate was incubated at room temperature for 10 minutes; (4) 2.5× peptide solution (10 μL) was added to each well of the 384-well assay plate; and (5) stop buffer (25 μL) was added to stop the kinase reaction after incubation at 28° C. for a specified period of time.
(§4) Multifunctional microplate reader (BMG LABTECH, PHER Astar FS) with a 320 nm excitation wavelength was used to read and collected the data of by absorbing light at […], which was converted from the rate of 665 signal/620 signal.
as §2

[3] = target: EGFR (human epidermal growth factor receptor) (Homo sapiens (Human), UniProt P00533); experiment: In vitro kinase inhibitory activity, EGFR; type: biochemical
Experimental: as §1, §3, §4, §2

[4] = Rat PK (pharmacokinetics after iv and po administration); type: in vivo; details: male, SD, plasma; for Vd: read-out: Vss; for bioavailability: po 5 vs iv 2 (g/kg [sic]; mg/kg in method), read-out: F (bioavailability)
Text: Materials used include Propranolol (internal standard), methyl alcohol, ammonium acetate, K2EDTA (potassium ethylenediaminetetraacetate), methane acid, acetonitrile, MTBE (methyl tert-butyl ether), Cremophor EL (polyoxyethylated castor oil), KolliphorHS 15 (polyethylene glycol 12-hydroxystearate), DMSO (dimethylsulfoxide), PEG400 (polyethylene glycol 400) and SD rat (male, 180-220 g, 7-8 weeks old, purchased from Hunan Slack King of Laboratory Animal Co., Ltd.), all of which are commercially available.
Each test compound prepared in above examples was completely dissolved in a mixture of 5% DMSO, 5% KolliphorHS 15 and 90% saline.
(1) The test sample stock solution was prepared by dissolving an accurately weighed test sample in DMSO followed by dilution to the concentration of 1 mg/mL with acetonitrile. The stock solution was stored under the condition of −20° C. for later use.
(2) Internal standard solution was prepared by diluting a certain amount of the Propranolol stock solution in the concentration of 1 mg/mL to 100 ng/mL with water.
Samples treated with liquid-liquid extraction and chromatographic separation were analyzed by triple quadrupole tandem mass spectrometer in multiple reaction monitoring (MRM) mode for quantitative analysis.
Pretreatment of plasma sample was performed according to the following procedures: (1) plasma sample (30 μL) was precisely measured, and internal standard (250 μL) was then added to the plasma sample which was then mixed by vortexing; (2) the sample was extracted once with 1 mL of MTBE and then centrifuged at 13000 rpm for 2 minutes at 4° C.; (3) supernatant (800 μL) was aspirated and dried with 96 holes nitrogen gas blowing; (4) the residue was dissolved with 150 μL of a mixture of methanol and water (v/v=1/1) and then mixed by vortexing; and (5) sampling: sample quantity was 8 μL.
Preparation of standard sample was performed according to the following procedures: (1) a pre-determined amount of the compound stock solution was precisely measured, and then was diluted to standard series of solution with acetonitrile; (2) each of the standard solution (20 μL) prepared above was precisely measured and to each was added 180 μL of blank plasma; (3) each sample was mixed by vortexing to obtain series of standard samples in which the plasma concentration was 3, 5, 10, 30, 100, 300, 1000, 3000, 5000 or 10000 ng/mL; and (4) standard curve was established.
The content of each test compound in rat plasma after administration was determined by LC/MS/MS.
Noncompartmental analysis to calculate pharmacokinetic parameters was performed with WinNonlin 6.1 software.

[5] = iv(2 g/kg) [sic], method says 2 mg/kg
[6] = po(5 g/kg) [sic], method says 5 mg/kg

Sequence of HER2 (human epidermal growth factor receptor 2) (P04626 23-1255): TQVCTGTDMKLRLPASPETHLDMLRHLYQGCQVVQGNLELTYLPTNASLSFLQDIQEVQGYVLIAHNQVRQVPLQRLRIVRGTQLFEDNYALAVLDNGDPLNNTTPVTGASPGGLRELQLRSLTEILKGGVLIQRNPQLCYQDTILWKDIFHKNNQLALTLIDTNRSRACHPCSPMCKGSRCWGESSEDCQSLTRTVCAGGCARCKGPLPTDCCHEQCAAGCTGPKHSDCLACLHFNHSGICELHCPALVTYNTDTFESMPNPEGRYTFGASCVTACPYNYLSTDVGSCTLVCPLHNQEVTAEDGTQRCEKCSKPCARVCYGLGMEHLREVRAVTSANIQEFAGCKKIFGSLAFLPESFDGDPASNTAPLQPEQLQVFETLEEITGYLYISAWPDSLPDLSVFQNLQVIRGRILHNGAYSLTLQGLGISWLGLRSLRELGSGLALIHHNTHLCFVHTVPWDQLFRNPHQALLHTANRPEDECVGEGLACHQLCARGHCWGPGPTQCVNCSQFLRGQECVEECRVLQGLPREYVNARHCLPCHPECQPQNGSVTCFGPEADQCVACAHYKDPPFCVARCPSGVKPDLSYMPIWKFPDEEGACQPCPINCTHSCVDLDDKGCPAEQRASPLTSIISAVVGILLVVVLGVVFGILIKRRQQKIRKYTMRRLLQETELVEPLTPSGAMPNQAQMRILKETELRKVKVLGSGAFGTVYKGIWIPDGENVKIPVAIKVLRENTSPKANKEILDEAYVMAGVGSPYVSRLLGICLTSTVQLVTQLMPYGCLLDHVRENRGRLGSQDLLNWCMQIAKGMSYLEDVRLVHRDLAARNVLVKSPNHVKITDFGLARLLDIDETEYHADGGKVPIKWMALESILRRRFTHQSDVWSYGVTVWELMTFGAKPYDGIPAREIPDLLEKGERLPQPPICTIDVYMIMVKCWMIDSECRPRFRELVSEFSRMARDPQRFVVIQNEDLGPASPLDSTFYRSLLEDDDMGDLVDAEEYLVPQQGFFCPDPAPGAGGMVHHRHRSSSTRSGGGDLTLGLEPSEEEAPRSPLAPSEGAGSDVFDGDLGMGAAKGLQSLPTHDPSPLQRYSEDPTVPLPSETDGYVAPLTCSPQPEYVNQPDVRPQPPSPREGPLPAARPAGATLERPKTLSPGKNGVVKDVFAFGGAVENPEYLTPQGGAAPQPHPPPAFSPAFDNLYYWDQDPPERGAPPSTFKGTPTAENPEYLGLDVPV
Sequence of EGFR T790M (human epidermal growth factor receptor T790M mutation) (P00533 25-1210 T790M): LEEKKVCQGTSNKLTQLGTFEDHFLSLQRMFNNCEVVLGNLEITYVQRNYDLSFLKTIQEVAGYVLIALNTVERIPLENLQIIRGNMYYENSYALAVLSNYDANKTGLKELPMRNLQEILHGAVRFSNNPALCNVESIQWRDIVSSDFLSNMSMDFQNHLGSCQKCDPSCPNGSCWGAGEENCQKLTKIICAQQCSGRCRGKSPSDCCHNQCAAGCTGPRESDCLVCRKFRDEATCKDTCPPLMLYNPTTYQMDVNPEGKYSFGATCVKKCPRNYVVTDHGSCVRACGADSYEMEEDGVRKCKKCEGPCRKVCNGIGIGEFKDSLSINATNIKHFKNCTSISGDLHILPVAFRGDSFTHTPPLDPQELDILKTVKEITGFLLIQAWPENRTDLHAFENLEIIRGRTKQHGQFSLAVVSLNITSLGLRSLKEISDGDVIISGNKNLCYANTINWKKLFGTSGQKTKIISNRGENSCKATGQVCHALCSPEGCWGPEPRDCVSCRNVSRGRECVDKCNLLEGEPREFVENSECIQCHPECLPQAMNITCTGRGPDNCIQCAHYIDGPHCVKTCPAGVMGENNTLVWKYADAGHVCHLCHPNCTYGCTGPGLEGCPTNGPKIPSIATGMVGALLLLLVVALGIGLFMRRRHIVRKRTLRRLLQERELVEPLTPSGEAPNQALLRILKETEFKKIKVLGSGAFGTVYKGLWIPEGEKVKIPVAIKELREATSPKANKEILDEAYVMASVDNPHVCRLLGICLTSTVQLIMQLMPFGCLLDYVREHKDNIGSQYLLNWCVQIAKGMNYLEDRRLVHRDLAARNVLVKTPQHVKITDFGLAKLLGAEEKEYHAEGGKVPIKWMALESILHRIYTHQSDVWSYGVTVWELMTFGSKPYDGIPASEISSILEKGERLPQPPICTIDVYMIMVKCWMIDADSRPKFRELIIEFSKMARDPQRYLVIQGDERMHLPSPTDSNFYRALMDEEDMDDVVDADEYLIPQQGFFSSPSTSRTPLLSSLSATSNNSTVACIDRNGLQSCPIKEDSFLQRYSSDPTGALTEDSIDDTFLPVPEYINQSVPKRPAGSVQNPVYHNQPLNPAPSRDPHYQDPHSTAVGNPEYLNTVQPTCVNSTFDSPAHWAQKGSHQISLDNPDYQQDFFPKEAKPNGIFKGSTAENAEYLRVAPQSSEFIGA
Sequence of EGFR (human epidermal growth factor receptor) (P00533 25-1210): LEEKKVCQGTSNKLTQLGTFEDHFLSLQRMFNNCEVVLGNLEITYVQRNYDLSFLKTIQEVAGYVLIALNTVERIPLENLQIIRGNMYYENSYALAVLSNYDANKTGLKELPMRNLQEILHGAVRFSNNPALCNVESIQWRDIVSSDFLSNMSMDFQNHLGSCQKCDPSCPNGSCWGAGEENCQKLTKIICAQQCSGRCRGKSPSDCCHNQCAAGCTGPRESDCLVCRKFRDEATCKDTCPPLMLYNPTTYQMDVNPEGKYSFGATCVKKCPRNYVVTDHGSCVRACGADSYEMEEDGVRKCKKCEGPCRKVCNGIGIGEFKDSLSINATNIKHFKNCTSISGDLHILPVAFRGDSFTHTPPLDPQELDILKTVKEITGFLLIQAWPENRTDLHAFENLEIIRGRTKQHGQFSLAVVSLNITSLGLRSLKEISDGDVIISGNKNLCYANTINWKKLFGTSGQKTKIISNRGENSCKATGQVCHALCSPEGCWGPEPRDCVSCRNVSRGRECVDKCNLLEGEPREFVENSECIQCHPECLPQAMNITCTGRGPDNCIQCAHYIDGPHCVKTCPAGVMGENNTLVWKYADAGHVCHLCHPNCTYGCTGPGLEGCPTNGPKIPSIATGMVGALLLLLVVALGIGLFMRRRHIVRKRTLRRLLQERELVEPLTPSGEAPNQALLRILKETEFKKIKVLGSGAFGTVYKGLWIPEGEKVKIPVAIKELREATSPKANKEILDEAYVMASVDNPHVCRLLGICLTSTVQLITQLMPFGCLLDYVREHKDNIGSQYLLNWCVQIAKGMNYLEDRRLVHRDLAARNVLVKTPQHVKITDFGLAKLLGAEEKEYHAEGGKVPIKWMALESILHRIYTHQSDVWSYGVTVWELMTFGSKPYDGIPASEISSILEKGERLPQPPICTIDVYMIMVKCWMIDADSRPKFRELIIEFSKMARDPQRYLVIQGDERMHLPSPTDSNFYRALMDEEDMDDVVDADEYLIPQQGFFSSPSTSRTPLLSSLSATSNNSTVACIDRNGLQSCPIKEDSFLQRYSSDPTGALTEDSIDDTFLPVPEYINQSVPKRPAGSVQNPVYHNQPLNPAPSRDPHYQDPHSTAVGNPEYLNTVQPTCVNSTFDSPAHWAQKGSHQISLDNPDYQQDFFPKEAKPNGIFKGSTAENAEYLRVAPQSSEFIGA

Row | SMILES | IC50 [1] | IC50 [2] | IC50 [3] | AUC(0-t) [4, 5] | Cmax [4, 5] | half-life [4, 5] | Vd [4, 5] | AUC(0-t) [4, 6] | Cmax [4, 6] | half-life [4, 6] | bioavailability [4]
1 | CCOc1cc2ncnc(Nc3ccc(F)c(Cl)c3)c2cc1NC(=O)/C=C/CN1C[C@@H]2OCCO[C@@H]2C1 [Example 3, (E)-N-(4-((3-Chloro-4-fluorophenyl)amino)-7-ethoxyquinazolin-6-yl)-4-((4aR,7aS)-tetrahydro-2H-[1,4]dioxin[2,3-c]pyrrol-6(3H)-yl)but-2-enamide] | 8.1 nM | 6.2 nM | 6.4 nM | – | – | – | – | – | – | – | –
2 | O=C(/C=C/CN1C[C@@H]2OCCO[C@@H]2C1)Nc1cc2c(Nc3ccc(F)c(Cl)c3)ncnc2cc1O[C@H]1CCOC1 [Example 5, (E)-N-(4-((3-Chloro-4-fluorophenyl)amino)-7-(((S)-tetrahydrofuran-3-yl)oxy)quinazolin-6-yl)-4-((4aR,7aS)-tetrahydro-2H-[1,4]dioxino[2,3-c]pyrrol-6(3H)-yl)but-2-enamide] | 11.7 nM | 6.8 nM | 3.6 nM | – | – | – | – | – | – | – | –
3 | COCCOc1cc2ncnc(Nc3ccc(F)c(Cl)c3)c2cc1NC(=O)/C=C/CN1C[C@@H]2OCCO[C@@H]2C1 [Example 6, (E)-N-(4-((3-Chloro-4-fluorophenyl)amino)-7-(2-methoxyethoxy)quinazolin-6-yl)-4-((4aR,7aS)-tetrahydro-2H-[1,4]dioxino[2,3-c]pyrrol-6(3H)-yl)but-2-enamide] | 10.4 nM | 8.7 nM | 1.8 nM | – | – | – | – | – | – | – | –
4 | O=C(/C=C/CN1C[C@@H]2OCCO[C@@H]2C1)Nc1cc2c(Nc3ccc(F)c(Cl)c3)ncnc2cc1OCC(F)(F)F [Example 7, (E)-N-(4-((3-Chloro-4-fluorophenyl)amino)-7-(2,2,2-trifluoroethoxy)quinazolin-6-yl)-4-((4aR,7aS)-tetrahydro-2H-[1,4]dioxino[2,3-c]pyrrol-6(3H)-yl)but-2-enamide] | 44 nM | 22.6 nM | 15.4 nM | – | – | – | – | – | – | – | –
5 | [2H]C([2H])([2H])Oc1cc2ncnc(Nc3ccc(F)c(Cl)c3)c2cc1NC(=O)/C=C/CN1C[C@@H]2OCCO[C@@H]2C1 [Example 20, (E)-N-(4-((3-Chloro-4-fluorophenyl)amino)-7-(methoxy-D3)quinazolin-6-yl)-4-((4aR,7aS)-tetrahydro 2H-[1,4]dioxino[2,3-c]pyrrol-6(3H)-yl)but-2-enamide] | – | – | – | 1.45 µg·h/mL | 0.868 µg/mL | 2.22 h | 3.71 L/kg | 3.19 µg·h/mL | 0.336 µg/mL | 3.6 h | –
6 | O=C(/C=C/CN1C[C@@H]2OCCO[C@@H]2C1)Nc1ccc2ncnc(Nc3ccc(OCc4cccc(F)c4)c(Cl)c3)c2c1 [Example 21, (E)-N-(4-((3-Chloro-4-((3-fluorobenzyl)oxy)phenyl)amino)quinazolin-6-yl)-4-((4aR,7aS)-tetrahydro-2H-[1,4]dioxino[2,3-c]pyrrol-6(3H)-yl)but-2-enamide] | 3.5 nM | 317 nM | 15 nM | – | – | – | – | – | – | – | –
7 | O=C(/C=C/CN1C[C@@H]2OCCO[C@@H]2C1)Nc1ccc2ncnc(Nc3ccc(OCc4ccccn4)c(Cl)c3)c2c1 [Example 22, (E)-N-(4-((3-Chloro-4-(pyridin-2-ylmethoxy)phenyl)amino)quinazolin-6-yl)-4-((4aR,7aS)-tetrahydro-2H-[1,4]dioxino[2,3-c]pyrrol-6(3H)-yl)but-2-enamide] | 1.9 nM | 47.3 nM | 22 nM | – | – | – | – | – | – | – | –
8 | COc1cc2ncnc(Nc3ccc(OCc4ccccn4)c(Cl)c3)c2cc1NC(=O)/C=C/CN1C[C@@H]2OCCO[C@@H]2C1 [Example 23, (E)-N-(4-((3-Chloro-4-(pyridin-2-ylmethoxy)phenyl)amino)-7-methoxyquinazolin-6-yl)-4-((4 aR,7aS)tetrahydro-2H-[1,4]dioxino[2,3-c]pyrrol-6(3H)-yl)but-2-enamide] | 1.8 nM | 8.5 nM | 60.4 nM | 7.56 µg·h/mL | 2.77 µg/mL | 3.06 h | 0.88 L/kg | 13.9 µg·h/mL | 1.93 µg/mL | 2.77 h | 73.5%
9 | O=C(/C=C/CN1C[C@@H]2OCCO[C@@H]2C1)Nc1ccc2ncnc(Nc3ccc4c(cnn4Cc4cccc(F)c4)c3)c2c1 [Example 26, (E)-N-(4-((1-(3-Fluorobenzyl)-1H-indazol-5-yl)amino)quinazolin-6-yl)-4-((4aR,7aS)-tetrahydro-2H-[1,4]dioxin[2,3-c]pyrrol-6(3H)-yl)but-2-enamide] | 1.6 nM | 89.3 nM | 14 nM | – | – | – | – | – | – | – | –
10 | COc1cc2ncnc(Nc3ccc(OCc4cccc(F)c4)c(Cl)c3)c2cc1NC(=O)/C=C/CN1C[C@@H]2OCCO[C@@H]2C1 [Example 29, (E)-N-(4-((3-Chloro-4-((3-fluorobenzyl)oxy)phenyl)amino)-7-methoxyquinazolin-6-yl)-4-((4aR,7aS)-tetrahydro-2H-[1,4]dioxino[2,3-c]pyrrol-6(3H)-yl)but-2-enamide] | 3.7 nM | – | – | – | – | – | – | – | – | – | –
11 | CCOc1cc2ncnc(Nc3ccc(OCc4cccc(F)c4)c(Cl)c3)c2cc1NC(=O)/C=C/CN1C[C@@H]2OCCO[C@@H]2C1 [Example 30, (E)-N-(4-((3-Chloro-4-((3-fluorobenzyl)oxy)phenyl)amino)-7-ethoxyquinazolin-6-yl)-4-((4aR,7aS)-tetrahydro-2H-[1,4]dioxino[2,3-c]pyrrol-6(3H)-yl)but-2-enamide] | 6.6 nM | 133 nM | 31.9 nM | – | – | – | – | – | – | – | –
12 | COCCOc1cc2ncnc(Nc3ccc(Cl)c(Cl)c3F)c2cc1NC(=O)/C=C/CN1C[C@@H]2OCCO[C@@H]2C1 [Example 33, (E)-N-(4-((3,4-Dichloro-2-fluorophenyl)amino)-7-(2-methoxyethoxy)quinazolin-6-yl)-4-((4aR,7aS)-tetrahydro-2H-[1,4]dioxino[2,3-c]pyrrol-6(3H)-yl)but-2-enamide] | 9.6 nM | – | – | 1.25 µg·h/mL | 0.89 µg/mL | 1.29 h | 2.77 L/kg | 1.37 µg·h/mL | 0.347 µg/mL | 1.27 h | 44.5%
13 | COc1cc2ncnc(Nc3ccc(F)c(Cl)c3F)c2cc1NC(=O)/C=C/CN1C[C@@H]2OCCO[C@@H]2C1 [Example 35, (E)-N-(4-((3-Chloro-2,4-difluorophenyl)amino)-7-methoxyquinazolin-6-yl)-4-((4aR,7aS)-tetrahydro-2H-[1,4]dioxino[2,3-c]pyrrol-6(3H)-yl)but-2-enamide] | 17.8 nM | 20 nM | 0.9 nM | – | – | – | – | – | – | – | –
